Data as given in PMC11294338 (Nature Communications, 2024).

Key:
[1] = system: SARS-CoV-2 (USA-WA1/2020) replicon in HuH-7 cells; format: cell-based
[2] = system: SARS-CoV-2; settings: in vivo; cited from earlier work
[3] = system: SARS-CoV-2; settings: human, in vivo; cited from earlier work

Compound	EC50 [1] [nM]	transmission to untreated contact animals [2]	post-exposure prophylactic prevention of transmission versus placebo [3]
CC(C)(C)[C@H](NC(=O)C(F)(F)F)C(=O)N1C[C@H]2[C@@H]([C@H]1C(=O)N[C@H](C#N)C[C@@H]1CCNC1=O)C2(C)C [Nirmatrelvir]	15		
CC(C)C(=O)OC[C@H]1O[C@@H](n2ccc(NO)nc2=O)[C@H](O)[C@@H]1O [molnupiravir]		prevented such transmission	neither was able to reach statistical significance over placebo
